Measurements from the supplement of paper PMC11061612.

What was measured:
AZD1775 = compound: C=CCn1c(=O)c2cnc(Nc3ccc(N4CCN(C)CC4)cc3)nc2n1-c1cccc(C(C)(C)O)n1 [AZD1775]; settings: max 3 µM
Outline: (§1)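 In 1536-well plates, cancer cell lines in 7.5 μl DMEM/F12 or RPMI with 10% FBS spent 24 hours at 37°C and 5% CO2 and were then dosed for 72 hours with final DMSO typically 0.2%. Viability was read by CellTiter-Glo 2.0 luminescence and scaled between blank-well and DMSO-well means. The single-agent IC50 was fitted from dose responses using a logistic curve in a non-linear mixed effects model, and that logistic curve had two parameters.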

AZD8186 = compound: C[C@@H](Nc1cc(F)cc(F)c1)c1cc(C(=O)N(C)C)cc2c(=O)cc(N3CCOCC3)oc12 [AZD8186]; settings: max 10 µM
Outline: as §1

AZD6738 = compound: C[C@@H]1COCCN1C2=NC(=NC(=C2)C3(CC3)[S@](=N)(=O)C)C4=C5C=CNC5=NC=C4 [AZD6738]; settings: max 10 µM
Outline: as §1

Selumetinib = compound: Cn1cnc2c(F)c(Nc3ccc(Br)cc3Cl)c(C(=O)NOCCO)cc21 [Selumetinib]; settings: max 10 µM
Outline: as §1

Paclitaxel = compound: CC(=O)O[C@H]1C(=O)[C@@]2(C)[C@H]([C@H](OC(=O)c3ccccc3)[C@]3(O)C[C@H](OC(=O)[C@H](O)[C@@H](NC(=O)c4ccccc4)c4ccccc4)C(C)=C1C3(C)C)[C@]1(OC(C)=O)CO[C@@H]1C[C@@H]2O [Paclitaxel]; settings: max 3 µM
Outline: as §1

Savolitinib = compound: C[C@@H](c1ccc2nccn2c1)n1nnc2ncc(-c3cnn(C)c3)nc21 [Savolitinib]; settings: max 1 µM
Outline: as §1

AZD0156 = compound: CN(C)CCCOc1ccc(-c2ccc3ncc4c(c3c2)n(C2CCOCC2)c(=O)n4C)cn1 [AZD0156]; settings: max 3 µM
Outline: as §1

Venetoclax = compound: CC1(C)CCC(CN2CCN(c3ccc(C(=O)NS(=O)(=O)c4ccc(NCC5CCOCC5)c([N+](=O)[O-])c4)c(Oc4cnc5[nH]ccc5c4)c3)CC2)=C(c2ccc(Cl)cc2)C1 [Venetoclax]; settings: max 1 µM
Outline: as §1

Carboplatin = compound: C1CC(C1)(C(=O)[O-])C(=O)[O-].N.N.[Pt+2] [Carboplatin]; settings: max 10 µM
Outline: as §1

AZD7648 = compound: Cc1cc2ncnn2cc1Nc1ncc2c(n1)n(C1CCOCC1)c(=O)n2C [AZD7648]; settings: max 10 µM
Outline: as §1

AZD5991 = compound: Cc1c2c(nn1C)CSCc1cc(n(C)n1)CSc1cc(c3ccccc3c1)OCCCc1c(C(=O)O)n(C)c3c-2c(Cl)ccc13 [AZD5991]; settings: max 1 µM
Outline: as §1

Crizotinib = compound: C[C@@H](Oc1cc(-c2cnn(C3CCNCC3)c2)cnc1N)c1c(Cl)ccc(F)c1Cl [Crizotinib]; settings: max 10 µM
Outline: as §1

SN-38 = compound: CCc1c2c(nc3ccc(O)cc13)-c1cc3c(c(=O)n1C2)COC(=O)[C@]3(O)CC [SN-38]; settings: max 0.3 µM
Outline: as §1

Palbociclib = compound: CC(=O)c1c(C)c2cnc(Nc3ccc(N4CCNCC4)cn3)nc2n(C2CCCC2)c1=O [Palbociclib]; settings: max 10 µM
Outline: as §1

Olaparib = compound: O=C(c1cc(Cc2n[nH]c(=O)c3ccccc23)ccc1F)N1CCN(C(=O)C2CC2)CC1 [Olaparib]; settings: max 10 µM
Outline: as §1

Alisertib = compound: COc1cc(Nc2ncc3c(n2)-c2ccc(Cl)cc2C(c2c(F)cccc2OC)=NC3)ccc1C(=O)O [Alisertib]; settings: max 10 µM
Outline: as §1

Dasatinib = compound: CC1=C(C(=CC=C1)Cl)NC(=O)C2=CN=C(S2)NC3=CC(=NC(=N3)C)N4CCN(CC4)CCO [Dasatinib]; settings: max 2 µM
Outline: as §1

Gefitinib = compound: COc1cc2ncnc(Nc3ccc(F)c(Cl)c3)c2cc1OCCCN1CCOCC1 [Gefitinib]; settings: max 10 µM
Outline: as §1

Taselisib = compound: Cc1nc(-c2cn3c(n2)-c2ccc(-c4cnn(C(C)(C)C(N)=O)c4)cc2OCC3)n(C(C)C)n1 [Taselisib]; settings: max 10 µM
Outline: as §1

AZD5153 = compound: COc1nnc2ccc(N3CCC(c4ccc(OCCN5CCN(C)C(=O)[C@H]5C)cc4)CC3)nn12 [AZD5153]; settings: max 1 µM
Outline: as §1

AZD2811 = compound: CCN(CCO)CCCOc1ccc2c(Nc3cc(CC(=O)Nc4cccc(F)c4)[nH]n3)ncnc2c1 [AZD2811]; settings: max 1 µM
Outline: as §1

Lapatinib = compound: CS(=O)(=O)CCNCc1ccc(-c2ccc3ncnc(Nc4ccc(OCc5cccc(F)c5)c(Cl)c4)c3c2)o1 [Lapatinib]; settings: max 10 µM
Outline: as §1

Prexasertib = compound: COc1cccc(OCCCN)c1-c1cc(Nc2cnc(C#N)cn2)n[nH]1 [Prexasertib]; settings: max 1 µM
Outline: as §1

Doxorubicin = compound: COc1cccc2c1C(=O)c1c(O)c3c(c(O)c1C2=O)C[C@@](O)(C(=O)CO)C[C@@H]3O[C@H]1C[C@H](N)[C@H](O)[C@H](C)O1 [Doxorubicin]; settings: max 1 µM
Outline: as §1

AZD1390 = compound: CC(C)n1c(=O)n(C)c2cnc3cc(F)c(-c4ccc(OCCCN5CCCCC5)nc4)cc3c21 [AZD1390]; settings: max 0.3 µM
Outline: as §1

SG3199 = compound: CC1=CN2[C@@H](C1)C=NC3=CC(=C(C=C3C2=O)OC)OCCCCCOC4=C(C=C5C(=C4)N=C[C@@H]6CC(=CN6C5=O)C)OC [SG3199]; settings: max 0.001 µM
Outline: as §1

SRA737 = compound: N#Cc1cnc(Nc2cc(NC[C@H]3CNCCO3)c(C(F)(F)F)cn2)cn1 [SRA737]; settings: max 10 µM
Outline: as §1

AZD5363 = compound: C1CN(CCC1(C(=O)N[C@@H](CCO)C2=CC=C(C=C2)Cl)N)C3=NC=NC4=C3C=CN4 [AZD5363]; settings: max 10 µM
Outline: as §1

Etoposide = compound: COc1cc([C@@H]2c3cc4c(cc3[C@@H](O[C@@H]3O[C@@H]5CO[C@@H](C)O[C@H]5[C@H](O)[C@H]3O)[C@H]3COC(=O)[C@H]23)OCO4)cc(OC)c1O [Etoposide]; settings: max 10 µM
Outline: as §1

Gemcitabine = compound: Nc1ccn([C@@H]2O[C@H](CO)[C@@H](O)C2(F)F)c(=O)n1 [Gemcitabine]; settings: max 0.3 µM
Outline: as §1

[1] = compound: O=C(Nc1ccc2[nH]nc(-c3ccncc3)c2c1)[C@@H]1CCN(CC(=O)N2CCN(c3ccc(-c4ncccn4)cc3)CC2)C1; settings: max 5 µM
Outline: as §1

AZD4320 = compound: CN(CC[C@H](CSC1=CC=CC=C1)NC2=C(C=C(C=C2)S(=O)(=O)NC(=O)C3=CC=C(C=C3)N4CCC(CC4)[C@H](C5=CC=CC=C5C6=CC=C(C=C6)Cl)O)S(=O)(=O)C(F)(F)F)CCO [AZD4320]; settings: max 1 µM
Outline: as §1

5-Fluorouracil = compound: O=c1[nH]cc(F)c(=O)[nH]1 [5-Fluorouracil]; settings: max 20 µM
Outline: as §1

MK-2206 = compound: NC1(c2ccc(-c3nc4ccn5c(=O)[nH]nc5c4cc3-c3ccccc3)cc2)CCC1 [MK-2206]; settings: max 10 µM
Outline: as §1

Trametinib = compound: CC(=O)Nc1cccc(-n2c(=O)n(C3CC3)c(=O)c3c(Nc4ccc(I)cc4F)n(C)c(=O)c(C)c32)c1 [Trametinib]; settings: max 1 µM
Outline: as §1

| Cell Line | IC50, cell viability 72 h (AZD1775) | IC50, cell viability 72 h (AZD8186) | IC50, cell viability 72 h (AZD6738) | IC50, cell viability 72 h (Selumetinib) | IC50, cell viability 72 h (Paclitaxel) | IC50, cell viability 72 h (Savolitinib) | IC50, cell viability 72 h (AZD0156) | IC50, cell viability 72 h (Venetoclax) | IC50, cell viability 72 h (Carboplatin) | IC50, cell viability 72 h (AZD7648) | IC50, cell viability 72 h (AZD5991) | IC50, cell viability 72 h (Crizotinib) | IC50, cell viability 72 h (SN-38) | IC50, cell viability 72 h (Palbociclib) | IC50, cell viability 72 h (Olaparib) | IC50, cell viability 72 h (Alisertib) | IC50, cell viability 72 h (Dasatinib) | IC50, cell viability 72 h (Gefitinib) | IC50, cell viability 72 h (Taselisib) | IC50, cell viability 72 h (AZD5153) | IC50, cell viability 72 h (AZD2811) | IC50, cell viability 72 h (Lapatinib) | IC50, cell viability 72 h (Prexasertib) | IC50, cell viability 72 h (Doxorubicin) | IC50, cell viability 72 h (AZD1390) | IC50, cell viability 72 h (SG3199) | IC50, cell viability 72 h (SRA737) | IC50, cell viability 72 h (AZD5363) | IC50, cell viability 72 h (Etoposide) | IC50, cell viability 72 h (Gemcitabine) | IC50, cell viability 72 h [1] | IC50, cell viability 72 h (AZD4320) | IC50, cell viability 72 h (5-Fluorouracil) | IC50, cell viability 72 h (MK-2206) | IC50, cell viability 72 h (Trametinib) |
| --- | --- | --- | --- | --- | --- | --- | --- | --- | --- | --- | --- | --- | --- | --- | --- | --- | --- | --- | --- | --- | --- | --- | --- | --- | --- | --- | --- | --- | --- | --- | --- | --- | --- | --- | --- |
| HOS (Osteosarcoma) | 1030 nM | > 10 µM | 8.43 µM | > 10 µM | 97.2 nM | > 1000 nM | > 3000 nM | > 1000 nM | > 10 µM | > 10 µM | > 1000 nM | > 10 µM | 29.4 nM | > 10 µM | > 10 µM | > 10 µM | > 2000 nM | > 10 µM | > 10 µM | 996 nM | > 1000 nM | > 10 µM | 53.6 nM | 792 nM | > 300 nM | > 1 nM | > 10 µM | > 10 µM | 4.34 µM | > 300 nM | > 5 µM | > 1000 nM | > 20 µM | > 10 µM | > 1000 nM |
| HT-1376 (Bladder Carcinoma) | > 3000 nM | > 10 µM | > 10 µM | > 10 µM | > 3000 nM | > 1000 nM | > 3000 nM | > 1000 nM | > 10 µM | > 10 µM | > 1000 nM | > 10 µM | > 300 nM | > 10 µM | > 10 µM | > 10 µM | > 2000 nM | > 10 µM | > 10 µM | > 1000 nM | > 1000 nM | > 10 µM | > 1000 nM | > 1000 nM | > 300 nM | > 1 nM | > 10 µM | > 10 µM | > 10 µM | > 300 nM | > 5 µM | > 1000 nM | > 20 µM | > 10 µM | > 1000 nM |
| TE-15 (Esophageal Squamous Cell Carcinoma) | 1840 nM | > 10 µM | 4.29 µM | 8.21 µM | 9.03 nM | > 1000 nM | > 3000 nM | > 1000 nM | > 10 µM | > 10 µM | > 1000 nM | > 10 µM | 9.74 nM | > 10 µM | > 10 µM | > 10 µM | 136 nM | – | 2.23 µM | 658 nM | > 1000 nM | 0.712 µM | 40.6 nM | 884 nM | > 300 nM | > 1 nM | 4.13 µM | > 10 µM | 4.55 µM | 25.5 nM | 3.95 µM | > 1000 nM | > 20 µM | > 10 µM | 693 nM |
